Article PMC11356900, “Synthesis, Structural Properties and Biological Activities of Novel Hydrazones of 2-, 3-, 4-Iodobenzoic Acid” (Molecules, 2024)
Converted amounts (≈) assume the structure as drawn.

Legend:
[1] = system: Candida albicans ATCC 10231; assay: Broth microdilution MIC/MFC; type: cell-based; conditions: for MFC: ATCC10231, read-out: MFC; for MIC: ATCC10231, read-out: MIC
Procedure, shortened: (§1)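 Two-fold dilutions in RPMI 1640 with MOPS (fungi) or Mueller-Hinton broth (bacteria), final 1000–0.488 µg/mL, inoculum 0.5 McFarland in 0.85% NaCl. MIC read spectrophotometrically; MBC/MFC as lowest concentration with no visible growth after well contents were spotted onto agar.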

[2] = system: Candida albicans ATCC 2091; assay: Broth microdilution MIC/MFC; type: cell-based; conditions: for MFC: ATCC2091, read-out: MFC; for MIC: ATCC2091, read-out: MIC
Procedure, shortened: as §1

[3] = system: Candida glabrata ATCC 90030; assay: Broth microdilution MIC/MFC; type: cell-based; conditions: Nakaseomyces glabratus; for MFC: ATCC90030, read-out: MFC; for MIC: ATCC90030, read-out: MIC
Procedure, shortened: as §1

[4] = system: Candida krusei ATCC 14243; assay: Broth microdilution MIC/MFC; type: cell-based; conditions: Pichia kudriavzevii; for MFC: ATCC14243, read-out: MFC; for MIC: ATCC14243, read-out: MIC
Procedure, shortened: as §1

[5] = system: Candida parapsilosis ATCC 22019; assay: Broth microdilution MIC/MFC; type: cell-based; conditions: Lodderomyces parapsilosis; for MFC: ATCC22019, read-out: MFC; for MIC: ATCC22019, read-out: MIC
Procedure, shortened: as §1

Gram-positive bacteria = assay: Broth microdilution, summary over reference Gram-positive bacteria; type: cell-based; conditions: reference Gram-positive bacteria / studied bacteria
Procedure, shortened: as §1

Candida spp. = assay: Broth microdilution, summary over reference yeasts; type: cell-based
Source text: Procedures of in vitro antimicrobial assays are described in Supplementary Materials.
2. Microbiology – in vitro antimicrobial activity assays […]
using the broth microdilution method according to the European Committee on Antimicrobial Susceptibility Testing (EUCAST) and Clinical and Laboratory Standards Institute guidelines against a panel of reference and clinical or saprophytic strains of mi croorganisms, including the Gram-positive bacteria: Staphylococcus aureus ATCC 43300 (Methi-cillin Resistant S. aureus – MRSA), Staphylococcus aureus ATCC 29213 (Methicillin Susceptible S. aureus – MSSA), Staph-ylococcus epidermidis ATCC 12228, Micrococcus luteus ATCC 10240, Bacillus subtilis ATCC 6633 and Bacillus cereus ATCC 10876), Gram-negative bacteria: Bordetella bronchiseptica ATCC 4617, Escherichia coli ATCC 25922, Klebsiella pneumoniae ATCC 13883, Proteus mirabilis ATCC 12453, Salmonella typhimurium ATCC 14028 and Pseudomonas aeruginosa ATCC 9027, and fungi belonging to yeasts: Candida albicans ATCC 10231, Candida albicans ATCC 2091, Candida parapsilosis ATCC 22019, Candida glabrata ATCC 90030 and Candida krusei ATCC 14243. The microorganisms belonging to ATCC originated from American Type Culture Collection, routinely used for the evaluation of antimicrobials. All the used microbial cultures were first subcultured on nutrient agar or Sabouraud agar at 35°C for 18-24 h or 30°C for 24-48 h for bacteria […]
The surface of Mueller-Hinton agar (for bacteria) and RPMI 1640 with MOPS (for fungi) were inoculated with the suspensions of bacterial or fungal species. Microbial suspensions were prepared in sterile saline with an optical density of McFarland standard scale 0.5. The samples containing the compounds were dissolved in dimethyl sulfoxide (DMSO).
Furthermore, the bacterial and fungal suspensions put onto the Petri dishes with solid media containing 2 mg/mL of the tested compounds followed were incubated at 37°C for 24h and 30°C for 48h for bacteria and fungi, respectively.
The inhibition of microbial growth was estimated comparing with a control culture prepared without any tested sam- […]
antifungal compounds, respectively.
Subsequently, MIC (Minimal Inhibitory Concentration) of the compounds was examined by the microdilution broth method, using their two-fold dilutions in Mueller-Hinton broth (for bacteria) and RPMI 1640 broth with MOPS (for fungi) prepared in the 96-well polystyrene plates. The final concentrations of the compounds ranged from 1000 to 0.488 µg/mL. Microbial suspensions were prepared in 0.85% NaCl with an optical density of 0.5 McFarland standard. Next each bacterial or fungal suspension was added per each well containing broth and various concentrations of the exam-ined compounds. After incubation, the MIC was assessed spectrophotometrically as the lowest concentration of the […]
Appropriate DMSO, growth and sterile controls were carried out. The medium with no tested substances was used as a control The MBC (Minimal Bactericidal Concentration) and MFC (Minimal Fungicidal Concentration) are defined as the lowest concentration of the compounds that is required to kill a particular bacterial or fungal species. The MBC/MFC was determined by removing the culture used for the MIC determination from each well and spotted onto the appro-priate agar medium. The plates were incubated under appropriate conditions for bacteria and fungi. The lowest com-pounds concentration with no visible growth observed was assessed as a bactericidal/fungicidal concentration. All the experiments were repeated three times and the representative data are presented.
1. European Committee for Antimicrobial Susceptibility Testing (EUCAST) Determination of minimum inhibitory con-centrations (MICs) of antibacterial agents by broth dilution. EUCAST discussion document E. Dis 5.1. Clin. Microbiol.
2. Clinical and Laboratory Standards Institute. Reference method for broth dilution antifungal susceptibility testing of […]

[6] = system: Staphylococcus aureus ATCC 25923; assay: Broth microdilution MIC/MBC; conditions: Staphylococcus aureus, ATCC25923
[7] = system: Staphylococcus aureus ATCC 29213; assay: Broth microdilution MIC/MBC; conditions: ATCC29213
[8] = system: Staphylococcus aureus ATCC 43300; assay: Broth microdilution MIC/MBC; conditions: ATCC43300 / MRSA
[9] = system: Staphylococcus epidermidis ATCC 12228; assay: Broth microdilution MIC/MBC; conditions: ATCC12228
[10] = system: Micrococcus luteus ATCC 10240; assay: Broth microdilution MIC/MBC; conditions: Micrococcus luteus, ATCC10240
[11] = system: Bacillus subtilis ATCC 6633; assay: Broth microdilution MIC/MBC; conditions: ATCC6633
[12] = system: Bacillus cereus ATCC 10876; assay: Broth microdilution MIC/MBC; conditions: Bacillus cereus, ATCC10876
[13] = system: Bordetella bronchiseptica ATCC 4617; assay: Broth microdilution MIC/MBC; conditions: ATCC4617
[14] = system: Klebsiella pneumoniae ATCC 13883; assay: Broth microdilution MIC/MBC; conditions: ATCC13883
[15] = system: Proteus mirabilis ATCC 12453; assay: Broth microdilution MIC/MBC; conditions: ATCC12453
[16] = system: Escherichia coli ATCC 25922; assay: Broth microdilution MIC/MBC; conditions: ATCC25922
[17] = system: Salmonella typhimurium ATCC 14028; assay: Broth microdilution MIC/MBC; conditions: Salmonella enterica
[18] = system: Pseudomonas aeruginosa ATCC 9027; assay: Broth microdilution MIC/MBC; conditions: ATCC9027
[19] = system: Gram-positive bacterial strains; parameters: method as in doi:10.14419/ijac.v5i1.7155; conditions: mainly Gram-positive bacterial strains; cited from earlier work
[20] = range over the reference Candida spp. strains

SMILES: O=C(N/N=C/c1cc(O)ccc1O)c1cccc(I)c1 [Compound 19, N-[(2,5-dihydroxyphenyl)methylidene]-3-iodobenzohydrazide]
- MFC [1]: > 1000 µg/mL
- MIC [1]: 250 µg/mL (≈ 654 µM)
- MFC [2]: > 1000 µg/mL
- MIC [2]: 500 µg/mL (≈ 1310 µM)
- MFC [3]: > 1000 µg/mL
- MIC [3]: 500 µg/mL (≈ 1310 µM)
- MFC [4]: > 1000 µg/mL
- MIC [4]: 250 µg/mL (≈ 654 µM)
- MFC [5]: > 1000 µg/mL
- MIC [5]: 125 µg/mL (≈ 327 µM)
- antibacterial activity in words (Gram-positive bacteria): no activity
- MFC/MIC (Candida spp.; [20]): > 4
- MIC (Candida spp.; [20]): 125 to 500 µg/mL (≈ 327 to 1310 µM)
- antifungal activity in words (Candida spp.; reference yeasts from Candida spp.): good and moderate
- melting point: 220 to 224 °C
- MIC [6]: > 1000 µg/mL
- MIC [7]: > 1000 µg/mL
- MIC [8]: > 1000 µg/mL
- MIC [9]: > 1000 µg/mL
- MIC [10]: > 1000 µg/mL
- MIC [11]: > 1000 µg/mL
- MIC [12]: > 1000 µg/mL
- MIC [13]: > 1000 µg/mL
- MIC [14]: > 1000 µg/mL
- MIC [15]: > 1000 µg/mL
- MIC [16]: > 1000 µg/mL
- MIC [17]: > 1000 µg/mL
- MIC [18]: > 1000 µg/mL

SMILES: O=C(N/N=C/c1cc(O)ccc1O)c1ccc(I)cc1 [Compound 26, N-[(2,5-dihydroxyphenyl)methylidene]-4-iodobenzohydrazide]
- MFC [1]: > 1000 µg/mL
- MIC [1]: 500 µg/mL (≈ 1310 µM)
- MFC [2]: > 1000 µg/mL
- MIC [2]: 1000 µg/mL (≈ 2620 µM)
- MFC [3]: > 1000 µg/mL
- MIC [3]: 1000 µg/mL (≈ 2620 µM)
- MFC [4]: > 1000 µg/mL
- MIC [4]: 500 µg/mL (≈ 1310 µM)
- MFC [5]: > 1000 µg/mL
- MIC [5]: 250 µg/mL (≈ 654 µM)
- MFC (Candida spp.; [20]): > 1000 µg/mL
- MIC (Candida spp.; [20]): 250 to 1000 µg/mL (≈ 654 to 2620 µM)
- melting point: 261 to 265 °C
- MIC [6]: > 1000 µg/mL
- MIC [7]: > 1000 µg/mL
- MBC [8]: > 1000 µg/mL
- MIC [8]: 1000 µg/mL (≈ 2620 µM)
- MBC [9]: > 1000 µg/mL
- MIC [9]: 1000 µg/mL (≈ 2620 µM)
- MBC [10]: > 1000 µg/mL
- MIC [10]: 500 µg/mL (≈ 1310 µM)
- MBC [11]: > 1000 µg/mL
- MIC [11]: 500 µg/mL (≈ 1310 µM)
- MIC [12]: > 1000 µg/mL
- MIC [13]: > 1000 µg/mL
- MIC [14]: > 1000 µg/mL
- MIC [15]: > 1000 µg/mL
- MIC [16]: > 1000 µg/mL
- MIC [17]: > 1000 µg/mL
- MIC [18]: > 1000 µg/mL

SMILES: O=C(N/N=C/c1cc(Br)cc(Br)c1O)c1ccc(I)cc1 [Compound 28, N-[(3,5-dibromo-2-hydroxyphenyl)methylidene]-4-iodobenzohydrazide]
- MFC [1]: > 1000 µg/mL
- MIC [1]: 500 µg/mL (≈ 954 µM)
- MFC [2]: > 1000 µg/mL
- MIC [2]: 1000 µg/mL (≈ 1910 µM)
- MFC [3]: > 1000 µg/mL
- MIC [3]: 1000 µg/mL (≈ 1910 µM)
- MFC [4]: > 1000 µg/mL
- MIC [4]: 1000 µg/mL (≈ 1910 µM)
- MFC [5]: > 1000 µg/mL
- MIC [5]: 500 µg/mL (≈ 954 µM)
- antibacterial activity in words (Gram-positive bacteria): No antimicrobial effect
- MFC (Candida spp.; [20]): > 1000 µg/mL
- MIC (Candida spp.; [20]): 250 to 1000 µg/mL (≈ 477 to 1910 µM)
- melting point: 210 to 211 °C
- MIC [6]: > 1000 µg/mL
- MIC [7]: > 1000 µg/mL
- MIC [8]: > 1000 µg/mL
- MIC [9]: > 1000 µg/mL
- MIC [10]: > 1000 µg/mL
- MIC [11]: > 1000 µg/mL
- MIC [12]: > 1000 µg/mL
- MIC [13]: > 1000 µg/mL
- MIC [14]: > 1000 µg/mL
- MIC [15]: > 1000 µg/mL
- MIC [16]: > 1000 µg/mL
- MIC [17]: > 1000 µg/mL
- MIC [18]: > 1000 µg/mL

SMILES: O=C(NN=Cc1ccc(F)cc1)c1ccccc1 [N-(4-fluorobenzylidene)benzohydrazide]
- zone of bacterial growth inhibition ZOI [19]: 6–7 mm
